What was measured:
blackgrass [1] = test: Test C preemergence; assay type: in vivo, Alopecurus myosuroides; settings: for Plant response rating, Blackgrass: Preemergence; for Blackgrass plant response rating: preemergence
Method in brief: (§1)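 Test material, in non-phytotoxic solvent with surfactant, was sprayed on the soil directly after seeding (preemergence) or on young plants of 2–10 cm with one to two leaves (postemergence). Greenhouse, 10 days; 0–100 visual control scale.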

ryegrass, Italian [2] = test: Test C postemergence; assay type: in vivo, Lolium multiflorum; settings: 10 days
Method in brief: as §1

wheat [3] = test: Test C postemergence; assay type: in vivo, Triticum aestivum; settings: 10 days
Method in brief: as §1

horseweed = test: Test C postemergence; assay type: in vivo, Erigeron canadensis; settings: 10 days
Method in brief: as §1

kochia [4] = test: Test C postemergence; assay type: in vivo, Bassia scoparia; settings: 10 days
Method in brief: as §1

galium = test: Test C postemergence; assay type: in vivo, Galium aparine; settings: 10 days
Method in brief: as §1

oat, wild [5] = test: Test C postemergence; assay type: in vivo, Avena fatua; settings: 10 days
Method in brief: as §1

green foxtail [6] = test: Test C preemergence; assay type: in vivo, Setaria viridis; settings: for Plant response rating, Foxtail, Green: Preemergence; for Foxtail, Green plant response rating: preemergence
Method in brief: as §1

corn [7] = test: Test C postemergence; assay type: in vivo, Zea mays; settings: 10 days
Method in brief: as §1

barnyardgrass [8] = test: Test C preemergence; assay type: in vivo, Echinochloa crusgalli; settings: for Barnyardgrass plant response rating: preemergence; for Plant response rating, Barnyardgrass: Preemergence
Method in brief: as §1

ryegrass, Italian [9] = test: Test C preemergence; assay type: in vivo, Lolium multiflorum; settings: for Plant response rating, Ryegrass, Italian: Preemergence; for Ryegrass, Italian plant response rating: preemergence
Method in brief: as §1

ducksalad = test: Test D flooded paddy test; assay type: in vivo, Heteranthera limosa; settings: 250 g ai/ha, applied to paddy water, visual rating after 13 to 14 days, scale 0 to 100 (0 no effect, 100 complete control)
Method in brief: (§2)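 At the 2-leaf stage, floodwater 3 cm deep received the test compound; that depth persisted throughout. Plants scored visually 13 to 14 days on, 0 (no effect) to 100 (complete control), dash indicating no result.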

pigweed, palmer [10] = test: Test C preemergence; assay type: in vivo, Amaranthus palmeri; settings: for Plant response rating, Pigweed, Palmer: Preemergence; for Pigweed, Palmer plant response rating: preemergence
Method in brief: as §1

green foxtail [11] = test: Test C postemergence; assay type: in vivo, Setaria viridis; settings: 10 days
Method in brief: as §1

corn [12] = test: Test C preemergence; assay type: in vivo, Zea mays; settings: for Plant response rating, Corn: Preemergence; for Corn plant response rating: preemergence
Method in brief: as §1

soybean [13] = test: Test C preemergence; assay type: in vivo, Glycine max; settings: for Plant response rating, Soybean: Preemergence; for Soybean plant response rating: preemergence
Method in brief: as §1

blackgrass [14] = test: Test C postemergence; assay type: in vivo, Alopecurus myosuroides; settings: 10 days
Method in brief: as §1

barnyardgrass [15] = test: Test D flooded paddy test; assay type: in vivo, Echinochloa crus-galli; settings: 250 g ai/ha, applied to paddy water, visual rating after 13 to 14 days, scale 0 to 100 (0 no effect, 100 complete control)
Method in brief: as §2

soybean [16] = test: Test C postemergence; assay type: in vivo, Glycine max; settings: 10 days
Method in brief: as §1

barnyardgrass [17] = test: Test C postemergence; assay type: in vivo, Echinochloa crusgalli; settings: 10 days
Method in brief: as §1

sedge, umbrella = test: Test D flooded paddy test; assay type: in vivo, Cyperus difformis; settings: 250 g ai/ha, applied to paddy water, visual rating after 13 to 14 days, scale 0 to 100 (0 no effect, 100 complete control)
Method in brief: as §2

rice = test: Test D flooded paddy test; assay type: in vivo, Oryza sativa; settings: 250 g ai/ha, applied to paddy water, visual rating after 13 to 14 days, scale 0 to 100 (0 no effect, 100 complete control)
Method in brief: as §2

kochia [18] = test: Test C preemergence; assay type: in vivo, Bassia scoparia; settings: for Plant response rating, Kochia: Preemergence; for Kochia plant response rating: preemergence
Method in brief: as §1

ragweed [19] = test: Test C preemergence; assay type: in vivo, Ambrosia artemisiifolia; settings: for Plant response rating, Ragweed: Preemergence; for Ragweed plant response rating: preemergence
Method in brief: as §1

oat, wild [20] = test: Test C preemergence; assay type: in vivo, Avena fatua; settings: for Plant response rating, Oat, Wild: Preemergence; for Oat, Wild plant response rating: preemergence
Method in brief: as §1

wheat [21] = test: Test C preemergence; assay type: in vivo, Triticum aestivum; settings: for Plant response rating, Wheat: Preemergence; for Wheat plant response rating: preemergence
Method in brief: as §1

ragweed [22] = test: Test C postemergence; assay type: in vivo, Ambrosia artemisiifolia; settings: 10 days
Method in brief: as §1

pigweed, palmer [23] = test: Test C postemergence; assay type: in vivo, Amaranthus palmeri; settings: 10 days
Method in brief: as §1

[24] = 500 g ai/ha, visual rating after 10 days, 0 to 100 scale (0 no effect, 100 complete control)
[25] = Test C, 125 g ai/ha, 0 to 100 scale (0 no effect, 100 complete control)
[26] = 125 g ai/ha, postemergence, 0 to 100 scale, 0 no effect, 100 complete control
[27] = Postemergence, 500 g ai/ha, visual 0 to 100 scale (0 no effect, 100 complete control)
[28] = 500 g ai/ha, 0 to 100 scale (0 no effect, 100 complete control)
[29] = 125 g ai/ha, 0 to 100 scale, 0 no effect, 100 complete control
[30] = Postemergence, 125 g ai/ha, 0 to 100 scale (0 no effect, 100 complete control)
[31] = 500 g ai/ha, postemergence, 0 to 100 scale (0 no effect, 100 complete control)

CCc1ncn(-c2cc3c(c(C(=O)N4C[C@H](C)Oc5c(Cl)cccc54)c2)OCCO3)n1 [Compound 155]
Plant response rating, Blackgrass (blackgrass [1]; [24]): 90 | Blackgrass plant response rating (blackgrass [1]; [25]): 50 | Plant response rating, Ryegrass, Italian (ryegrass, Italian [2]; [26]): 70 | Plant response rating, Ryegrass, Italian (ryegrass, Italian [2]; [27]): 100 | Plant response rating, Wheat (wheat [3]; [26]): 60 | Plant response rating, Wheat (wheat [3]; [27]): 80 | Plant response rating, Horseweed (horseweed; [26]): 70 | Plant response rating, Horseweed (horseweed; [27]): 70 | Plant response rating, Kochia (kochia [4]; [26]): 80 | Plant response rating, Kochia (kochia [4]; [27]): 90 | Plant response rating, Galium (galium; [26]): 100 | Plant response rating, Galium (galium; [27]): 100 | Plant response rating, Oat, Wild (oat, wild [5]; [26]): 20 | Plant response rating, Oat, Wild (oat, wild [5]; [27]): 50 | Plant response rating, Foxtail, Green (green foxtail [6]; [24]): 100 | Foxtail, Green plant response rating (green foxtail [6]; [25]): 100 | Plant response rating, Corn (corn [7]; [26]): 40 | Plant response rating, Corn (corn [7]; [27]): 90 | Barnyardgrass plant response rating (barnyardgrass [8]; 125 g ai/ha, 0 to 100 scale (0 no effect, 100 complete control)): 90 | Plant response rating, Barnyardgrass (barnyardgrass [8]; [24]): 100 | Plant response rating, Ryegrass, Italian (ryegrass, Italian [9]; [24]): 90 | Ryegrass, Italian plant response rating (ryegrass, Italian [9]; [25]): 70 | Plant response rating, Ducksalad (Flood) (ducksalad): 60 | Plant response rating, Pigweed, Palmer (pigweed, palmer [10]; [24]): 100 | Pigweed, Palmer plant response rating (pigweed, palmer [10]; [25]): 100 | Plant response rating, Foxtail, Green (green foxtail [11]; [26]): 90 | Plant response rating, Foxtail, Green (green foxtail [11]; [27]): 90 | Plant response rating, Corn (corn [12]; [24]): 50 | Corn plant response rating (corn [12]; [25]): 10 | Plant response rating, Soybean (soybean [13]; [24]): 100 | Soybean plant response rating (soybean [13]; [25]): 70 | Plant response rating, Blackgrass (blackgrass [14]; [26]): 90 | Plant response rating, Blackgrass (blackgrass [14]; [27]): 100 | Plant response rating, Barnyardgrass (Flood) (barnyardgrass [15]): 20 | Plant response rating, Soybean (soybean [16]; [26]): 100 | Plant response rating, Soybean (soybean [16]; [27]): 100 | Plant response rating, Barnyardgrass (barnyardgrass [17]; [26]): 90 | Plant response rating, Barnyardgrass (barnyardgrass [17]; [27]): 90 | Plant response rating, Sedge, Umbrella (Flood) (sedge, umbrella): 98 | Plant response rating, Rice (Flood) (rice): 15 | Plant response rating, Kochia (kochia [18]; [24]): 90 | Kochia plant response rating (kochia [18]; [25]): 80 | Plant response rating, Ragweed (ragweed [19]; [24]): 100 | Ragweed plant response rating (ragweed [19]; [25]): 60 | Plant response rating, Oat, Wild (oat, wild [20]; [24]): 50 | Oat, Wild plant response rating (oat, wild [20]; [25]): 30 | Plant response rating, Wheat (wheat [21]; [24]): 70 | Wheat plant response rating (wheat [21]; [25]): 20 | Plant response rating, Ragweed (ragweed [22]; [26]): 100 | Plant response rating, Ragweed (ragweed [22]; [27]): 100 | Plant response rating, Pigweed, Palmer (pigweed, palmer [23]; [26]): 90 | Plant response rating, Pigweed, Palmer (pigweed, palmer [23]; [27]): 100

COC[C@H]1CN(C(=O)c2cc(-n3cnc(C(C)(C)O)n3)ccc2OC)c2cccc(Cl)c2O1 [Compound 408]
Blackgrass plant response rating (blackgrass [1]; [28]): 80 | Plant response rating, Blackgrass (blackgrass [1]; [29]): 10 | Plant response rating, Ryegrass, Italian (ryegrass, Italian [2]; [30]): 70 | Plant response rating, Wheat (wheat [3]; [30]): 30 | Plant response rating, Horseweed (horseweed; [31]): 60 | Plant response rating, Horseweed (horseweed; [30]): 0 | Plant response rating, Kochia (kochia [4]; [31]): 90 | Plant response rating, Kochia (kochia [4]; [30]): 70 | Plant response rating, Galium (galium; [30]): 100 | Plant response rating, Oat, Wild (oat, wild [5]; [31]): 90 | Plant response rating, Oat, Wild (oat, wild [5]; [30]): 30 | Foxtail, Green plant response rating (green foxtail [6]; [28]): 100 | Plant response rating, Foxtail, Green (green foxtail [6]; [29]): 100 | Plant response rating, Corn (corn [7]; [31]): 80 | Plant response rating, Corn (corn [7]; [30]): 10 | Barnyardgrass plant response rating (barnyardgrass [8]; [28]): 100 | Plant response rating, Barnyardgrass (barnyardgrass [8]; [29]): 60 | Ryegrass, Italian plant response rating (ryegrass, Italian [9]; [28]): 80 | Plant response rating, Ryegrass, Italian (ryegrass, Italian [9]; [29]): 60 | Plant response rating, Ducksalad (Flood) (ducksalad): 90 | Pigweed, Palmer plant response rating (pigweed, palmer [10]; [28]): 100 | Plant response rating, Pigweed, Palmer (pigweed, palmer [10]; [29]): 100 | Plant response rating, Foxtail, Green (green foxtail [11]; [31]): 60 | Plant response rating, Foxtail, Green (green foxtail [11]; [30]): 20 | Corn plant response rating (corn [12]; [28]): 60 | Plant response rating, Corn (corn [12]; [29]): 0 | Soybean plant response rating (soybean [13]; [28]): 100 | Plant response rating, Soybean (soybean [13]; [29]): 80 | Plant response rating, Blackgrass (blackgrass [14]; [31]): 70 | Plant response rating, Blackgrass (blackgrass [14]; [30]): 0 | Plant response rating, Barnyardgrass (Flood) (barnyardgrass [15]): 10 | Plant response rating, Soybean (soybean [16]; [30]): 100 | Plant response rating, Barnyardgrass (barnyardgrass [17]; [31]): 60 | Plant response rating, Barnyardgrass (barnyardgrass [17]; [30]): 10 | Plant response rating, Sedge, Umbrella (Flood) (sedge, umbrella): 98 | Plant response rating, Rice (Flood) (rice): 15 | Kochia plant response rating (kochia [18]; [28]): 100 | Plant response rating, Kochia (kochia [18]; [29]): 70 | Ragweed plant response rating (ragweed [19]; [28]): 90 | Plant response rating, Ragweed (ragweed [19]; [29]): 60 | Oat, Wild plant response rating (oat, wild [20]; [28]): 60 | Plant response rating, Oat, Wild (oat, wild [20]; [29]): 30 | Wheat plant response rating (wheat [21]; [28]): 60 | Plant response rating, Wheat (wheat [21]; [29]): 20 | Plant response rating, Ragweed (ragweed [22]; [30]): 50 | Plant response rating, Pigweed, Palmer (pigweed, palmer [23]; [31]): 80 | Plant response rating, Pigweed, Palmer (pigweed, palmer [23]; [30]): 80

— US20260262643A1, “HERBICIDAL BENZOXAZINES” (FMC CORPORATION, priority 2022, published 2026)
